Measurements taken from patent publication US20160199481A1 (priority 2013, published 2016).
“Also recorded” adds a separate entry of the source.

What was measured:
Type in all cases: cell-based, influenza A
[1] = test system: G147R NA-only VLPs
[2] = test system: WT HA/G147R NA virus
[3] = test system: PassMut HA/G147R NA virus
[4] = test system: WT HA/G147R NA virus; remark: listed apart in the source
[5] = test system: PassMut HA/G147R NA virus; remark: listed apart in the source

In the case of oseltamivir, the “oseltamivir concentration down to which agglutination was inhibited” value [1] is reported as 0.12 nM, the “reversal of agglutination by G147R VLPs” value [1] is reported as “reversed the agglutination” and the “neutralization of infectivity (percent infectivity remaining)” value [2] is reported as “partially neutralized by oseltamivir; also recorded: intermediate phenotype”. The “oseltamivir concentration down to which agglutination was inhibited” value [3] was 1.5 nM, the “inhibition of agglutination by oseltamivir” value [4] was “uninhibited at all oseltamivir concentrations tested” and the “neutralization of infectivity (percent infectivity remaining)” value [5] was “nearly completely neutralized by oseltamivir; also recorded: strongly neutralized at low nanomolar oseltamivir concentrations”.
